Results on 39 compounds are retold here after ChEMBL document CHEMBL3507680, “University of Dundee, Gates Library screen for HepG2 cell viability”.

The structures appear in SMILES notation.

This series can be described thus: Human HepG2 cell viability assay in 384 well format. It is filed as toxicity, cell-based. The note with it: HepG2 cells, read-out: Inhibition. The arrangement: dose 125 nL, time 70.5 hour; concentration not given beside the values.
For `COCC1CN(CC2CCOCC2)Cc2cn(CC3CCCC3)nc21` (centres undefined), the cytotoxicity at 70.5 h is -7.67%.

As to `O=C(c1ccc[nH]1)N1CCOC2(COCCN(c3cncnc3)C2)C1` (centres undefined), the cytotoxicity at 70.5 h was -7.73%.

With `COCC1CN(Cc2ccoc2)Cc2cn(C)nc21` (centres undefined), the cytotoxicity at 70.5 h was -7.39%.

With `Cc1noc(C2CN(S(C)(=O)=O)Cc3ccnn3C2)n1` (centres undefined), the cytotoxicity at 70.5 h was -7.77%.

For `Cc1noc(C)c1CN1C[C@@H](OCC(=O)N(C)C)[C@H]2OCCC[C@H]21`, the cytotoxicity at 70.5 h was -9.4%.

As for `O=S(=O)(C1CC1)N1CC[C@]2(C[C@H](OCC3CCOCC3)CO2)C1`, the cytotoxicity at 70.5 h is -9.21%.

Consider `CCCS(=O)(=O)N1CC[C@H]2OCC[C@@]2(c2nnc(C)o2)C1`, for which the cytotoxicity at 70.5 h is 8.91%.

Consider `Cc1nnc([C@@]23CCO[C@@H]2CCN(S(C)(=O)=O)C3)o1`, for which the cytotoxicity at 70.5 h was -0.978%.

As for `Cc1noc(C2CN(S(=O)(=O)C3CC3)Cc3ccnn3C2)n1` (centres undefined), the cytotoxicity at 70.5 h was 10.2%.

Turning to `CN(C)C(=O)c1n[nH]c2c1CCN(Cc1nccs1)C2`, the cytotoxicity at 70.5 h was -4.93%.

Turning to `CS(=O)(=O)N1CCCC12CCCN(C(=O)c1ccncc1)C2` (centres undefined), the cytotoxicity at 70.5 h was -7.69%.

With `Cc1ccc(C)c(Oc2cc(-n3nc(C)c(C#N)c3N)nc(C)n2)c1`, the cytotoxicity at 70.5 h was -6.07%.

For `O=C(Cn1nc(Br)nc1Br)N1CCOCC1`, the cytotoxicity at 70.5 h came out at 27.3%.

As for `O=c1[nH]cnc2[nH]c(N3CCOCC3)nc12`, the cytotoxicity at 70.5 h worked out at 26.5%.

Turning to `COc1ccc(C2SCC(=O)N2c2ncc(C)s2)cc1` (centres undefined), the cytotoxicity at 70.5 h was -1.35%.

Turning to `Cc1cnc(N2C(=O)CSC2c2cccs2)s1` (centres undefined), the cytotoxicity at 70.5 h was 28.2%.

Turning to `CC(C)Sc1nnc(CCNC(=O)OC(C)(C)C)o1`, the cytotoxicity at 70.5 h was 26.1%.

As to `COc1ccc2c(ccn2CCN)c1`, the cytotoxicity at 70.5 h was 5.97%.

Consider `CC(C)CN1C(=O)c2ccc(C(=O)NCCc3c[nH]cn3)cc2C1=O`, for which the cytotoxicity at 70.5 h was -0.52%.

On to `Cc1ccc2c(ccn2CCC(=O)NC[C@@H]2CCCN3CCCC[C@H]23)c1`, for which the cytotoxicity at 70.5 h came to 1.22%.

As to `COc1ccc(C2CC(=O)Oc3cc(C)[nH]c(=O)c32)cc1` (centres undefined), the cytotoxicity at 70.5 h is -2.66%.

For `COC(=O)CC(c1ccc(OC)c(OC)c1)c1oc(C)cc(=O)c1O` (centres undefined), the cytotoxicity at 70.5 h was 5.4%.

Turning to `O=C(CNC(=O)N1CCc2c([nH]c3ccc(Cl)cc23)C1)N1CCOCC1`, the cytotoxicity at 70.5 h stood at 37.5%.

Regarding `COC(=O)COc1nc(CC(C)C)c2c(c1C#N)CCCC2`, the cytotoxicity at 70.5 h is 7.01%.

Take `O=C(NCCN1CCCCC1)c1nc2ccccc2c(=O)[nH]1`: the cytotoxicity at 70.5 h stood at 4.35%.

As to `O=C(NCCN1CCNCC1)c1nc2ccccc2c(=O)[nH]1`, the cytotoxicity at 70.5 h was -2.57%.

As to `NC(=O)c1nc(COc2ccc3c(c2)OCO3)no1`, the cytotoxicity at 70.5 h was -12.9%.

As for `CC(C)[C@H](NC(=O)NC1CCS(=O)(=O)C1)C(=O)NCc1cccnc1` (some centres undefined), the cytotoxicity at 70.5 h was 6.1%.

Regarding `O=C(c1nc(COc2ccc3c(c2)OCO3)no1)N1CCCC1`, the cytotoxicity at 70.5 h is -3.83%.

On to `CC(C)[C@H](NC(=O)NC1CCS(=O)(=O)C1)C(=O)NCc1ccccc1Cl` (some centres undefined), for which the cytotoxicity at 70.5 h was 0.909%.

With `O=C(Cn1ccc2c(Cl)cccc21)N[C@@H](C(=O)O)c1ccccc1`, the cytotoxicity at 70.5 h came out at 0.804%.

Regarding `COc1ccc(NC(=O)Cn2nc(C)ccc2=O)cc1OC`, the cytotoxicity at 70.5 h stood at 0.232%.

Take `O=C(c1ccncc1)N1CCOC2(COCCN(c3cncnc3)C2)C1` (centres undefined): the cytotoxicity at 70.5 h was -11.1%.

`CS(=O)(=O)N1CCC2(CC1)COC(COc1cccnc1)C2` (centres undefined): the cytotoxicity at 70.5 h was -8.18%.

Consider `CC(C)CCN1CCC2(CCCN(c3nncs3)C2)C1` (centres undefined), for which the cytotoxicity at 70.5 h is -5.61%.

Turning to `Cc1nc(C)n(CC2CN(Cc3nccs3)Cc3nccn3C2)n1` (centres undefined), the cytotoxicity at 70.5 h was -2.68%.

With `CCOCC(=O)N1CC[C@H]2OCC[C@@]2(COc2ncccc2F)C1`, the cytotoxicity at 70.5 h is -12%.

On to `O=C(c1ccncc1)N1CCC2(CC1)C(=O)Nc1ccccc12`, for which the cytotoxicity at 70.5 h was -10.1%.

On to `c1cncc(COCC2CN(Cc3cccnc3)Cc3ccnn3C2)c1` (centres undefined), for which the cytotoxicity at 70.5 h was -9.95%.
